Consider two compounds from patent publication US10682330B2, “Method for producing liposome encapsulating paclitaxel monoglycoside and/or docetaxel monoglycoside” (ENSUIKO SUGAR REFINING CO., LTD., priority 2012, dated 2020).

A short description of data set [1]: Solubility in mixed solvent Cremophor EL:ethanol:PBS (pH 7.4) 12:12:76 (Test Example 1). The data set is classed as physicochemical. The conditions noted are these: for solubility: Cremophor EL:ethanol:PBS 12:12:76 mixed solvent, pH 7.4, aqueous with cosolvent or surfactant or cyclodextrin, ethanol, Cremophor EL, PBS pH 7.4 (12:12:76); for Concentration at which dissolved: Cremophor:ethanol:PBS (pH 7.4) 12:12:76. As to the method:
Powdery gPTX and paclitaxel (hereinbelow, referred to as PTX in the Examples) produced by the method disclosed in NPL 1 were individually weighed in predetermined amounts, followed by addition of ethanol (120 μL) and mixing using a vortex. Cremophor® EL (available from Wako Pure Chemical Industries. Ltd.) (120 μL) was further mixed with each solution liquid, and then PBS (pH 7.4, 760 μL) was mixed. The solubility of each of the gPTX and PTX was confirmed.

The nature of data set [2]: Encapsulation efficiency and loading efficiency in liposome by HPLC (Test Example 2). To be noted: drug solution in 40% EG (1 mg/mL), comparative example. The data set is classed as physicochemical. As to the method: Subsequently, after the eggplant flask was immersed in a hot bath at 60° C. for five minutes, a gPTX solution (1 ml) (Cremophor:ethanol:ultra-pure water=12:12:76, volume ratio) adjusted to a concentration of 20 mg/ml, or a PTX solution (Cremophor:ethanol:ultra-pure water=12:12:76, volume ratio) at a concentration of 2 mg/ml was added thereto to dissolve the lipid film, thus preparing a multilamellar vesicle (MLV).
In a comparative example, the above-mentioned 1 mg/ml gPTX solution (10 mM phosphate buffer containing 40% (volume) ethylene glycol) was used in place of the 20 mg of gPTX solution to encapsulate gPTX in a liposome.
The efficiency of paclitaxel monoglycoside encapsulated in the obtained liposome or immunoliposome was calculated as follows. First, the standard curve of each of the gPTX and PTX was obtained. […]
Next, 0.1% Triton X-100 ( 1/10 volume) was added to a prepared liposome, and the liposome was broken by sonication. Thereafter, the solution (10 μl) was measured by HPLC, and the encapsulated drug amount was obtained using the standard curve. […]
Using the following formulae (1) and (2), the encapsulation efficiency (EE) and loading efficiency (LE) were calculated based on the obtained drug amount. […]

For data set [3], the system named is SK-BR-3, human-derived breast cancer cell. The data set can be described thus: Anti-cancer activity, MTT assay (Test Example 3). Format: cell-based. To be noted: PTX, gPTX dissolved in DMSO, liposomes prepared with gPTX in 40% ethylene glycol solution; for IC50: Homo sapiens. As to the method: IC50 of each of the PTX and gPTX dissolved in DMSO, and gPTX-L and gPTX-IL prepared by using gPTX dissolved in a 40% (volume) ethylene glycol solution was measured by an MTT assay. As a test target cell, SK-BR-3, which is a human-derived breast cancer cell, was used. IT50 was also calculated. IT50 indicates the half of time required for attaining the drug concentration at which all of the cells die, and can be easily calculated based on the survival curve obtained by plotting the percentage of cell viability to the time axis.
In general terms: Tetrazolium dyes change colour on reduction, which living cells bring about.

Data set [4] deals with HT-29, colon adenocarcinoma cell. The data set can be described thus: Anti-cancer activity, MTT assay on HT-29 (Test Example 9). To be noted: for IC100 / IC50: 72 hours; for IC50: Homo sapiens; for IT50: drug added at IC100. The data set is classed as cell-based. As to the method: (§1) In the same manner as in Test Example 3, anti-cancer activity was measured. SK-BR-3, which is a human-derived breast cancer cell, and HT-29, which is a colon adenocarcinoma cell, were used. Specifically, cells were seeded to a 96 well-plate at 5000 cells/well, and incubated for 24 hours. Then, PTX, gPTX, gPTX-L, and gPTX-IL were separately added at different concentrations, followed by incubation.
(§2) 72 hours later, the percentage of cell viability was calculated by an MTT assay. First, the concentration (IC50) at which 50% of the cells die was obtained from the survival curve. Subsequently, the time (IT50) at which 50% of the cells die was obtained from the survival curve. After the cells were seeded, PTX, gPTX, gPTX-L, or gPTX-IL was added at a concentration attaining IC100, which was obtained from the survival curve. Incubation was then performed for 1, 2, 6, 12, 24, 48, or 72 hours, and then medium exchange was performed. 72 hours after the drug addition, the MTT assay was performed in the same manner as in the above experiment to obtain the survival rate, and calculate the IT50 therefrom.

Data set [5] deals with SK-BR-3, human-derived breast cancer cell. The data set can be described thus: Anti-cancer activity, MTT assay on SK-BR-3 (Test Example 9). Format: cell-based. The conditions noted are these: for IC50: Homo sapiens; for IC50 / IT50: SK-BR-3; for IC50 / IC100: SK-BR3, 72 hours; for IT50: drug added at IC100. As to the method: as §1, §2
Data set [6] in a line: Solubility in 10 mM phosphate buffer containing 10 to 40% ethylene glycol (Test Example 1). Format: physicochemical. The conditions noted are these: aqueous with cosolvent or surfactant or cyclodextrin. As to the method:
In all cases, gPTX was mixed so that the concentration became 1 mg/mL.

The test system of a further data set is BALB/c mouse. To be noted: in vivo. As to the method:
Specifically, gPTX, gPTX-L, a CEP buffer (Cremophor:ethanol:ultra-pure water=12:12:76; volume ratio), or PBS was administered via tail vein to each BALB/c mouse (female, 6 weeks old) two times with an interval of three hours (N=4). The dose per each was 200 μl/20 g. The total dose of gPTX was 150 or 100 mg/kg in view of gPTX. Observation over time was performed during and after the administration.

A further data set concerns HT-29 tumor. The data set can be described thus: In vivo anti-cancer activity, tumor volume (Test Example 11). Further details: species or system ICR-nu/nu mouse. The conditions noted are these: tail vein two times, interval 3 hours; total gPTX 150 mg/kg, trastuzumab 200 mg/kg; N=4. The text has this: (§3) HT-29 cells were subcutaneously administered at 3.0×10^6 cells to each ICR-nu/nu mouse (male, 5 weeks old). When the tumor volume became about 50 to 200 mm^3, the above gPTX, the gPTX-L produced in Test Example 7, the gPTX-IL produced in Test Example 9, trastuzumab, the liposome (empty L) encapsulating no gPTX and having no antibody (trastuzumab) produced in Test Example 9, the liposome (empty IL) encapsulating […] and having an antibody (trastuzumab) produced in Test Example 9, a CEP buffer, or PBS was administered via tail vein two times at an interval of 3 hours (N=4). The dose per each was 200 μl/20 g. The total dose of gPTX was 150 mg/kg, and the total dose of trastuzumab was 200 mg/kg. The tumor volume shift after administration was observed. […] The tumor volume was calculated from the formula (3) below. Tumor volume=(tumor smallest diameter^2×tumor longest diameter)/2 (3)

The test system of a further data set is ICR-nu/nu mouse. Kind of data set: Body weight shift and survival in HT-29 bearing mice (Test Example 11). To be noted: total dose of gPTX 150 mg/kg; N=4. The data set is classed as in vivo.
Source text: as §3
The body weight shift and the survival rate in each group were measured. FIGS. 6 to 9 show the results.

Each structure is given as a SMILES string. Values after ≈ are worked out from the molar mass of the structure shown.

For the compound `CC(=O)O[C@H]1C(=O)[C@@]2(C)[C@H]([C@H](OC(=O)c3ccccc3)[C@]3(O)C[C@H](OC(=O)[C@H](O)[C@@H](NC(=O)c4ccccc4)c4ccccc4)C(C)=C1C3(C)C)[C@]1(OC(C)=O)CO[C@@H]1C[C@@H]2O` [PTX, paclitaxel], the solubility is more than 2000 µg/mL in data set [1] (Concentration 2 mg/ml), less than 3000 µg/mL in [1] (Concentration 3 mg/ml), less than 3000 µg/mL in data set [1] (Concentration 10 mg/ml) and less than 3000 µg/mL in [1] (Concentration 20 mg/ml). In addition, the “Concentration at which dissolved” value in data set [1] is on record as “about 2 mg/ml”. Besides, the “EE (encapsulation efficiency)” value in data set [2] is reported as “not encapsulated in the liposome”. Further, the IC50 (as a rule, the concentration needed to halve the response being measured) in data set [3] came out at 5.91 nM; in [4], 1.3 ± 0.5 nM; in data set [5] it was 5.5 ± 1.3 nM. Besides, the “IT50” value is listed as 15.9 h in data set [3], 11.9 h in data set [4] and 9.8 h in [5]. Further, the IC100 was found to be 10 nM in data set [4] and 30 nM in data set [5].

Consider `CC(=O)O[C@H]1C(=O)[C@@]2(C)C([C@H](OC(=O)c3ccccc3)[C@@]3(O)CC1=C(C)C(OC(=O)[C@H](O)[C@@H](NC(=O)c1ccccc1)c1ccccc1)C3)[C@]1(OC(C)=O)CO[C@@H]1C[C@H]2OC(=O)COC1OC(CO)C(O)C(O)C1O` (stereo partly drawn) [gPTX, 7-α-glucosyloxyacetylpaclitaxel], for which the solubility was more than 20000 µg/mL in [1] (Concentration 2 mg/ml); more than 20000 µg/mL in [1] (Concentration 10 mg/ml); more than 20000 µg/mL in [1] (Concentration 20 mg/ml); less than 30000 µg/mL in data set [1] (Concentration 30 mg/ml); less than 1000 µg/mL in data set [6] (Ethylene glycol (EG) 10%, 10 mM phosphate buffer, read-out: Solubility of 1 mg/mL gPTX); less than 1000 µg/mL in data set [6] (Ethylene glycol (EG) 20%, 10 mM phosphate buffer, read-out: Solubility of 1 mg/mL gPTX). Also, the solubility in data set [6] (Ethylene glycol (EG) 30%, 10 mM phosphate buffer, read-out: Solubility of 1 mg/mL gPTX) is less than 1000 µg/mL; in data set [6] (Ethylene glycol (EG) 40%, 10 mM phosphate buffer, read-out: Solubility of 1 mg/mL gPTX), more than 1000 µg/mL; in data set [6] (PBS containing 40% (volume) ethylene glycol, read-out: Solubility of gPTX), approximately 1000 µg/mL (≈ 956 µM). Also, the “Concentration at which dissolved” value in data set [1] came to 20000 µg/mL. Moreover, the figures for the IC50 in data set [3], in [4] and in data set [5] were 46 nM, 11 ± 0.8 nM and 18.9 ± 1.1 nM, respectively. Besides, the “IT50” value amounted to 18.7 h in data set [3], 9.6 h in data set [4] and 8.3 h in data set [5]. For the same compound, the “Body weight change (FIG. 4)” value in the data set on BALB/c mouse was “significant body weight loss”. In the data set with BALB/c mouse, the “Mice dead one day after the administration (FIG. 3)” value is listed as “three”. The figures for the IC100 in [4] and in data set [5] were 50 nM and 100 nM, respectively. In addition, the “Tumor growth inhibition effect (tumor volume)” value in the data set on HT-29 tumor is recorded as “remarkably excellent anti-tumor growth inhibition effect”. Besides, the Body weight shift result in the data set on ICR-nu/nu mouse is “remarkable body weight loss”. For the same compound, the Deaths after administration result in the data set on ICR-nu/nu mouse is “two mice died in three hours after the administration, and one died one week after the administration”.
